These results are taken from patent US20250257401A1, “BIOMARKER FOR TUBEROUS SCLEROSIS COMPLEX WITH NO MUTATION IDENTIFIED IN TSC1 OR TSC2 GENE, AND USES THEREOF” (Guangzhou KingMed Transformative Medicine Institute Co., …, priority 2022, published 2025).

Common to all, as to format: cell-based, human
Series [1] has as its system HEK293 cells. In words: Dose-dependent cell viability, preliminary IC50 experiment (HEK293). The following applies: FIG. 6.
In series [2] the test system is HaCaT cells. Briefly: Dose-dependent cell viability, preliminary IC50 experiment (HaCaT). The following applies: FIG. 6.
In series [3] the test system is IQGAP2-silenced cells. Briefly: Cell proliferation of IQGAP2-silenced cells after administration of inhibitors (CCK8). The following applies: IQGAP2-silenced HaCaT and HEK293 cells; each inhibitor in a dose of IC50; FIG. 7 and FIG. 8.
Source text: That is, the pathway was further determined by verifying whether the cell proliferation caused by IQGAP2 silencing can be alleviated by inhibiting the AKT activity and mTORC1 activity (key factors of the mTOR pathway) in IQGAP2-silenced cells with the inhibitors.
Then, HaCaT cells and HEK293 cells were administrated with each inhibitor in a dose of IC50.
Series [4] relates to IQGAP2 gene. In words: IQGAP2 silencing by shRNA, gene and protein expression (HEK293). The following applies: HEK293 cells; lentiviral transduction; 72 hours; FIG. 3. An excerpt:
(§1) To verify whether the abnormal IQGAP2 affected cell proliferation, IQGAP2-silenced cells were constructed using an RNAi approach. Since TSC could affect the skin and kidney of the patients, human keratinocytes (HaCaT) cells and human embryonic kidney 293 (HEK 293) cells were chosen as cell models. The shRNA sequence was designed and constructed for the IQGAP2 gene (as shown in Table 1), and IQGAP2-silenced HaCaT cells and IQGAP2-silenced HEK293 cells were obtained by lentiviral transduction. Subsequently, the cell proliferation of IQGAP2-silenced cells was detected at 24, 48, and 72 hours by using Cell Counting Kit 8 (CCK8).
(§2) The results were shown in FIGS. 3 to 4, and FIG. 3 depicted the gene expression level of IQGAP2-silenced human keratinocytes cells and IQGAP2-silenced human embryonic kidney 293 cells at 72 hours. […] And Control represented a control group, shGFP represented the empty vector control group, sh IQ IQGAP2-1, sh IQ IQGAP2-2, and sh IQ IQGAP2-3 represented the corresponding shRNA-1 to shRNA-3 primer silencing groups (repeated in triplicate for each group), respectively, and GAPDH represented the internal reference gene.

Series [5] deals with IQGAP2 gene. Briefly: IQGAP2 silencing by shRNA, gene and protein expression (HaCaT). To be noted: HaCaT cells; lentiviral transduction; 72 hours; FIG. 3.
Source text: as §1, §2

Broadly, the IC50 is the concentration that inhibits the measured activity by half. A lower IC50 goes with greater potency. Turning to `O=c1[nH]c2ccccc2n1C1CCN(Cc2ccc(-c3nc4cc5[nH]cnc5cc4nc3-c3ccccc3)cc2)CC1` [AKT inhibitor VIII], the IC50 in series [1] is 12.5 µM; in series [2] it was 25 µM. The “cell proliferation of IQGAP2-silenced cells” value in series [3] was “reduce the cell proliferation”.

Turning to `CO[C@H]1C[C@@H]2CC[C@@H](C)[C@@](O)(O2)C(=O)C(=O)N2CCCC[C@H]2C(=O)O[C@H]([C@H](C)C[C@@H]2CC[C@@H](O)[C@H](OC)C2)CC(=O)[C@H](C)/C=C(\C)[C@@H](O)[C@@H](OC)C(=O)[C@H](C)C[C@H](C)/C=C/C=C/C=C/1C` [Rapamycin], the IC50 was determined as 12.5 µM in series [1] (Homo sapiens) and 50 µM in series [2] (Homo sapiens).

Consider “IQGAP2-shRNA-1: IQGAP2-silenced shRNA sequence 5′-GCTCCTACCTACTGCGAATAT-3′ (SEQ ID NO. 1) (GCUCCUACCUACUGCGAAUAU)”, for which, in series [4], the IQGAP2 silencing entry is “optimum silencing”.

In the case of “IQGAP2-shRNA-3: IQGAP2-silenced shRNA sequence 5′-GCTCCAGATGGCTTTGATATC-3′ (SEQ ID NO. 3) (GCUCCAGAUGGCUUUGAUAUC)”, the IQGAP2 silencing entry in series [5] is given as “optimum silencing”.
